Source: US6451796B1, “Fused pyrazine compounds” (Ono Pharmaceutical Co., Ltd., priority 1997, dated 2002)

Key:
Type in all cases: cell-based
ICAM-1 expression = experiment: Inhibition of ICAM-1 expression in HUVEC (cell ELISA); details: Homo sapiens; HUVEC stimulated with TNFα for 6 hours, ELISA of surface expression
Protocol: (§1) (1) Inhibition of Adhesion Molecules Expression in HUVEC
(§2) Human umbilical vein endothelial cells were cultured using MCDB104 medium (Nissui) containing 5% Fetal bovine serum supplemented antibiotics (100 U/ml penicillin, 100 μg/ml streptomycin (Gibco)), 0.01 mg/ml heparin (Nissui) and 0.005 mg/ml endothelial cells (EC) growth factor (Nissui) in gelatin coated 96-well microtiter plates by resulting in confluent monolayers.
(§3) The compounds were dissolved in dimethyl sulfoxide and prepared final 0.2% concentration in the medium and then added 50 μl into the well. Cytokine stimulation of EC was performed by adding 50 μl of 10 ng/ml TNFα (Genzyme) (for E-selectin. and ICAM-1 expression) or 50 μl of 10 ng/ml TNFα plus 1 ng/ml IL-4 (Genzyme)(for VCAM- expression).
(§4) After stimulation for 6 hours, the wells were washed with PBS(−) once and EC monolayers were fixed by incubating with methanol containing 0.3% hydrogen peroxide for 10 minutes at room temperature. After washing with PBS(−) three times, an ELISA was used to measure the expression of adhesion molecules on EC surface. The ELISA was performed at room temperature with three times washes with PBS(−) between each step. EC were incubated for 30 minutes in turn with 100 μl primary antibody which were anti-ICAM-1 antibody (BBA4), anti-E-selectin antibody (BBA2) or anti-VCAM-1 antibody (BBA6) (mouse IgG1, 1.25 μl/ml; R&D), with 100 μl of secondary antibody which was goat anti-mouse IgG conjugated peroxidase (dilution (1/400); Nordic Immunological laboratories). The enzyme substrate 1 mg/ml o-phenylenediamine/2HCl and 0.1% hydrogen peroxide of 100 μl was added and incubated for 4 minutes at room temperature.
(§5) Reaction was stopped with 50 μl of 8N sulfuric acid and optical density (OD) of each well read at 490 nm in immunoreder. Inhibitory percentage was calculated as follows and IC50 value was estimated by percentage for control.
(§6) Inhibitory percentage (%)=[(C−S)/(C−B)]×100
(§7) C: OD of the sample stimulated by cytokines
(§8) S: OD of the sample stimulated by cytokines in the presence of test compound
(§9) B: OD of the nonstimulated sample

E-selectin expression = experiment: Inhibition of E-selectin expression in HUVEC (cell ELISA); details: Homo sapiens; HUVEC stimulated with TNFα for 6 hours, ELISA of surface expression
Protocol: as §1, §2, §3, §4, §5, §6, §7, §8, §9

VCAM-1 expression = experiment: Inhibition of VCAM-1 expression in HUVEC (cell ELISA); details: Homo sapiens; HUVEC stimulated with TNFα plus IL-4 for 6 hours, ELISA of surface expression
Protocol: as §1, §2, §3, §4, §5, §6, §7, §8, §9

[1] = Cytotoxicity test by MTT assay; details: human; EC treated under conditions identical to adhesion molecule expression measurement; MTT 3 hours
Protocol: Furthermore, MTT [3-(4,5-dimethyl-2-thiazolyl)-2,5-diphenyl-2H-tetrazolium bromide] assay was enforced and the number of living cells was counted in order to estimate the effect of compound not to depend cytotoxicity on the above evaluation system.
(2) Cytotoxicity Test by MTT Assay
EC Were treated under conditions identical to those employed for measurement of adhesion molecules expression. After incubation, the wells were washed with PBS(−) once, added 100 μl of MTT solution (1 mg/ml) and incubated for 3 hours. After incubation supernatants were discarded and 100 μl of methanol added. After stirring, OD of each well read at 570 nm/690 nm in immunoreader. Inhibitory percentage was calculated as follows and IC50 value was estimated by percentage for control.
Inhibitory percentage (%)=[(C−S)/C)]×100
as §7, §8

| IC50 (ICAM-1 expression) [µM] | IC50 (E-selectin expression) [µM] | IC50 (VCAM-1 expression) [µM] | SMILES | IC50 [1] [nM] |
| --- | --- | --- | --- | --- |
| 0.95 | 1.04 | 0.95 | FC(F)(F)c1nnc2c(Sc3ccccc3)nc3ccccc3n12 [Compound (12), 4-Phenylthio(5-trifluoromethyl-1,2,4-triazolo)-[4,3-a]quinoxaline] | > 50000 |
| 0.073 | 0.103 | 0.032 | CC(C)Sc1nc2cccnc2n2c(C(F)(F)F)nnc12 [Example 3(16), 4-Isopropylthio-(5-trifluoromethyl-1,2,4-triazolo)[3,4-c]1,4,5-triazanaphthalene] | > 100000 |
| 0.4 | 0.6 | 0.2 | OCCCCCSc1nc2ccc(Cl)cc2n2c(C(F)(F)F)nnc12 [Example 3(73), 8-Chloro-4-(5-hydroxypentyl)thio-(5-trifluoromethyl-1,2,4-triazolo)[4,3-a]quinoxaline] | > 25000 |
